The values below come from article PMC9474705 (British journal of pharmacology, 2022).

For one assay, the target named is β2AR-RlucII (Homo sapiens, UniProt P07550). The experiment in a line: BRET Gs. The conditions noted are these: agonist, […] min, mini-Gs. Format: cell-based.
The target of a further assay is β2AR (β2AR stable cells) (Homo sapiens, UniProt P07550). The experiment in a line: [3H]DHA competition on membranes. Type of assay: binding.
The target of the next assay is β1AR-RlucII (Homo sapiens, UniProt P08588). The assay can be described thus: BRET Gs. Type of assay: cell-based. The conditions noted are these: agonist, […] min, mini-Gs.
β1AR-RlucII, sequence (P08588 whole entry): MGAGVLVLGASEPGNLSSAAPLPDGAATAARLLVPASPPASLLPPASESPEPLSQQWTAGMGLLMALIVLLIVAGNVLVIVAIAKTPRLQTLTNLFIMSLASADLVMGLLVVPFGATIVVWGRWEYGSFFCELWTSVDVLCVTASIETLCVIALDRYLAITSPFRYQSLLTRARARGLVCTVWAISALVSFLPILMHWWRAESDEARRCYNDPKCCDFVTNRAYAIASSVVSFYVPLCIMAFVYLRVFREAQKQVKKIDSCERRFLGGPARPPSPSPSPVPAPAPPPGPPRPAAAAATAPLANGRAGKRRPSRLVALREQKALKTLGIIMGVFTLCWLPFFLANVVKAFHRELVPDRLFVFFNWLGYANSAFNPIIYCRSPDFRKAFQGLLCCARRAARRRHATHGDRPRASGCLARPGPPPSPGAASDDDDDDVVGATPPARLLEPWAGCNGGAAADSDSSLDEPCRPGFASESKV

β2AR (β2AR stable cells), sequence (P07550 whole entry): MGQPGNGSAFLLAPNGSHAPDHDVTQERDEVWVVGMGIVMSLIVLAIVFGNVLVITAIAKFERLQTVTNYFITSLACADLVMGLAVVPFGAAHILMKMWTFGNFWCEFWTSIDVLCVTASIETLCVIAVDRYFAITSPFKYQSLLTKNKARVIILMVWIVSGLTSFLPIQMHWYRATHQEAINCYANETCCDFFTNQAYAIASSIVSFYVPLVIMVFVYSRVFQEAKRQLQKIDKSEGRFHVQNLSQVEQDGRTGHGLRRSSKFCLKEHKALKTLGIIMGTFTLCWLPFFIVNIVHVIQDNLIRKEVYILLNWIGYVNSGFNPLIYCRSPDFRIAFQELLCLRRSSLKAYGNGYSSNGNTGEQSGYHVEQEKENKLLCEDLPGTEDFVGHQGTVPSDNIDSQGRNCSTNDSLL
β2AR-RlucII, sequence (P07550 whole entry): as above

Take `CCCCNCC(O)c1ccc(O)cc1` (stereo not shown) [Bamethane]: the EC50 result at β2AR-RlucII is recorded as “all compounds showed efficacy in recruiting Gαs to the receptor”. Also, the IC50 on β2AR (β2AR stable cells) is 31.6 µM.
In turn, `CC(CCc1ccccc1)NC(C)C(O)c1ccc(O)cc1` (stereo not shown) [Buphenine] gave an IC50 on β2AR (β2AR stable cells) of 0.251 µM.
At β2AR (β2AR stable cells), `CC(CCc1ccc(O)cc1)NCCc1ccc(O)c(O)c1` (stereo not shown) [Dobutamine] showed an IC50 of 5.01 µM. Further, the EC50 result on β1AR-RlucII is recorded as “DOB was slightly more efficacious for β1AR”.
Consider `Oc1ccc(CC2NCCc3cc(O)c(O)cc32)cc1` (stereo not shown) [Higenamine], for which the IC50 on β2AR (β2AR stable cells) was 5.01 µM.
Still for that read-out and setting: the figure for `CC(NCCc1ccc(O)cc1)C(O)c1ccc(O)cc1` (stereo not shown) [Ritodrine] is 1.26 µM.

One may read the IC50 as the concentration that inhibits the measured activity by half.
